ChEMBL document CHEMBL1136743, “Design, synthesis, and biological evaluation of C9- and C2-substituted pyrazolo[4,3-e]-1,2,4-triazolo[1,5-c]pyrimidines as new A2A and A3 adenosine receptors antagonists” (J Med Chem, 2003)

How the values were obtained:
Adenosine receptor A3 [1] = biological target: T1, Adenosine receptor A3 (Homo sapiens, UniProt P0DMS8); experiment: biochemical
T1 sequence (P0DMS8 whole entry): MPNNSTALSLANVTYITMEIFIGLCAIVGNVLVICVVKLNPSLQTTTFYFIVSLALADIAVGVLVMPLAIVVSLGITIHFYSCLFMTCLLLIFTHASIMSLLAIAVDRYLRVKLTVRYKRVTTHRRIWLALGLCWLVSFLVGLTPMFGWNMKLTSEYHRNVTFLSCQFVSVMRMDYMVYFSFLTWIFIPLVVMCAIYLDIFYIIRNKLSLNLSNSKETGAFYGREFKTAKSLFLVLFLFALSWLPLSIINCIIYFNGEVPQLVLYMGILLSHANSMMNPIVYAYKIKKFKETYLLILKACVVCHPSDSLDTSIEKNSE
Description: (§1) Displacement of [3H]- MRE 308F20 binding from human Adenosine A3 receptor expressed in CHO cells

Adenosine receptor A2a [2] = biological target: T2, Adenosine receptor A2a (Homo sapiens, UniProt P29274); experiment: biochemical
Adenosine receptor A2b [3] = biological target: T3, Adenosine receptor A2b (Homo sapiens, UniProt P29275); experiment: biochemical
T3 sequence (P29275 whole entry): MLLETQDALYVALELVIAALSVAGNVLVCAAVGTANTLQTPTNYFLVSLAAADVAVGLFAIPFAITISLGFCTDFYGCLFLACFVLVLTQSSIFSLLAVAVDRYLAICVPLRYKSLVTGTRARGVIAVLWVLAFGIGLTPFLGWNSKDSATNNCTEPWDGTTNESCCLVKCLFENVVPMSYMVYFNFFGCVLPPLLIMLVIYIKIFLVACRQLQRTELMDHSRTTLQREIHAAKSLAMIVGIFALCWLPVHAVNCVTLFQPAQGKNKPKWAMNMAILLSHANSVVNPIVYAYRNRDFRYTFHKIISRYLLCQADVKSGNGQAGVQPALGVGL
Description: (§2) Displacement of [3H]- DPCPX from human adenosine A2B receptor expressed in HEK293 cells

Adenosine receptor A1 = biological target: T4, Adenosine receptor A1 (Homo sapiens, UniProt P30542); experiment: biochemical
T4 sequence (P30542 whole entry): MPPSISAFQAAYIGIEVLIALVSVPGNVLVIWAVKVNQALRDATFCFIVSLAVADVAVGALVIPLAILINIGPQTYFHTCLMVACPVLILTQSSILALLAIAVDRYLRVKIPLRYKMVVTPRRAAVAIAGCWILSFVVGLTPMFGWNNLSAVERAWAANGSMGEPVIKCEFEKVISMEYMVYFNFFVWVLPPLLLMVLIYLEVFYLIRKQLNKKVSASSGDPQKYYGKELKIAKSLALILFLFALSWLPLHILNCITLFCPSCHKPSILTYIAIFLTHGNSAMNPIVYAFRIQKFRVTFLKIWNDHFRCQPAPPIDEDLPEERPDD
Description: Displacement of [3H]- DPCPX binding at human Adenosine A1 receptor expressed in CHO cells

Adenosine receptor A2a [4] = biological target: T2, Adenosine receptor A2a; experiment: biochemical; remark: listed apart in the source
Adenosine receptor A3 [5] = biological target: T1, Adenosine receptor A3
Adenosine receptor A2b [6] = biological target: T3, Adenosine receptor A2b; experiment: biochemical; remark: listed apart in the source
Description: as §2

Adenosine receptor A2a [7] = biological target: T2, Adenosine receptor A2a
Adenosine receptor A3 [8] = biological target: T1, Adenosine receptor A3; conditions: cho
Description: as §1

Adenosine receptor A2b [9] = biological target: T5, Adenosine receptor A2b (Rattus norvegicus, UniProt P29276)
T5 sequence (P29276 whole entry): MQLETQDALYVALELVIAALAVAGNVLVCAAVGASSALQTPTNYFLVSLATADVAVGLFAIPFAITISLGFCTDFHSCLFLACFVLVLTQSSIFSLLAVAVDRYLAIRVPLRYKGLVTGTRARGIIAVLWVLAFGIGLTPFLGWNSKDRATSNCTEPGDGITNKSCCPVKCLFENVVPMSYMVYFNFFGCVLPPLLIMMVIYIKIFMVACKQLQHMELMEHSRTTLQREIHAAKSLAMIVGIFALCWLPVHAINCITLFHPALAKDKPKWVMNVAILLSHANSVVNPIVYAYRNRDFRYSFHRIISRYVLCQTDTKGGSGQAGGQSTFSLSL

T2 sequence (P29274 whole entry): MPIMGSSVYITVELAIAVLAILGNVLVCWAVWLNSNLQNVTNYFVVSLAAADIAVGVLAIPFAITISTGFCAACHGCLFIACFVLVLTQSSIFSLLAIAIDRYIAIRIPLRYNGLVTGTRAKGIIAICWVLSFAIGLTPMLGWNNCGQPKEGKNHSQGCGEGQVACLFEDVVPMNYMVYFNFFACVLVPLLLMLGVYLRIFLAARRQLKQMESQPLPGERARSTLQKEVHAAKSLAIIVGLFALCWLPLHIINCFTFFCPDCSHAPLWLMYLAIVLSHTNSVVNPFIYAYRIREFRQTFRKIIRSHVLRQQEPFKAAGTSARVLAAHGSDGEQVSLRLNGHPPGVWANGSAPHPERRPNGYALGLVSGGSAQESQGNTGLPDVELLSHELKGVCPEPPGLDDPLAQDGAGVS

Work on `CSc1c2c(nc(N)n3nc(-c4ccco4)nc23)nn1CCCc1ccccc1` yielded a Ki (Adenosine receptor A3 [1]) greater than 1000 nM.

Work on `CCNc1c2c(nc(NC(=O)Nc3ccc(OC)cc3)n3nc(-c4ccco4)nc23)nn1C` [listing 1 of 2 here] yielded a Ki (Adenosine receptor A3 [1]) of 14 nM and a Ki (Adenosine receptor A2a [2]) of 21 nM.

`CN1CCN(Cc2ccc(-c3nc4c5cnn(CCc6ccccc6)c5nc(N)n4n3)o2)CC1` was tested, and the Ki (Adenosine receptor A2b [3]) was greater than 1000 nM, the Ki (Adenosine receptor A3 [1]) was greater than 1000 nM and the Ki (Adenosine receptor A1) was greater than 1000 nM. For the same compound, the Ki (Adenosine receptor A2a [4]) was greater than 1000 nM.

`CN1CCN(c2c3c(nc(N)n4nc(-c5ccco5)nc34)nn2C)CC1` [listing 1 of 2 here] showed a Ki (Adenosine receptor A3 [1]) greater than 1000 nM.

`CSc1c2c(nc(NC(=O)Cc3ccc4c(c3)OCO4)n3nc(-c4ccco4)nc23)nn1C` was tested, and the IC50 (Adenosine receptor A3 [5]) was 466 nM.

For `COc1ccc(CC(=O)Nc2nc3nn(C)c(SC)c3c3nc(-c4ccco4)nn23)cc1`, the Ki (Adenosine receptor A3 [1]) was greater than 1000 nM.

Compound `COc1ccc(NC(=O)Nc2nc3nn(C)c(SC)c3c3nc(-c4ccco4)nn23)cc1` has an IC50 (Adenosine receptor A3 [5]) of 813 nM.

With `Nc1nc2c(cnn2CCc2ccccc2)c2nc(-c3ccc(CN4CCOCC4)o3)nn12` the Ki (Adenosine receptor A2b [3]) was greater than 1000 nM, the Ki (Adenosine receptor A3 [1]) was greater than 1000 nM and the Ki (Adenosine receptor A1) was greater than 1000 nM. It also gave a Ki (Adenosine receptor A2a [4]) greater than 1000 nM.

Work on `Nc1nc2c(cnn2CCc2ccccc2)c2nc(-c3ccccc3)nn12` yielded a Ki (Adenosine receptor A2b [6]) greater than 1000 nM, a Ki (Adenosine receptor A3 [1]) greater than 1000 nM and a Ki (Adenosine receptor A1) of 235 nM. For the same compound, the Ki (Adenosine receptor A2a [2]) was greater than 1000 nM.

With `CCCSc1c2c(nc(N)n3nc(-c4ccco4)nc23)nn1C` the IC50 (Adenosine receptor A2a [7]) was 14.8 nM and the IC50 (Adenosine receptor A3 [5]) was 852 nM.

For `CSc1c2c(nc(N)n3nc(-c4ccco4)nc23)nn1C`, the IC50 (Adenosine receptor A2a [7]) was 6.1 nM and the IC50 (Adenosine receptor A3 [5]) was 188 nM.

Compound `CSc1c2c(nc(N)n3nc(-c4ccc(CN5CCN(C)CC5)o4)nc23)nn1C` has a Ki (Adenosine receptor A2b [3]) greater than 1000 nM, a Ki (Adenosine receptor A3 [1]) greater than 1000 nM and a Ki (Adenosine receptor A1) greater than 1000 nM. The Ki (Adenosine receptor A2a [2]) was greater than 1000 nM.

Compound `COc1ccc(NC(=O)Nc2nc3nn(C)c(N4CCN(C)CC4)c3c3nc(-c4ccco4)nn23)cc1` has a Ki (Adenosine receptor A3 [1]) greater than 1000 nM and a Ki (Adenosine receptor A2a [2]) greater than 1000 nM.

In the case of `Cn1nc2nc(N)n3nc(-c4ccco4)nc3c2c1Nc1ccc(O)cc1`, the Ki (Adenosine receptor A2b [3]) is reported as greater than 1000 nM and the Ki (Adenosine receptor A2a [2]) is reported as greater than 1000 nM.

`CSc1c2c(nc(NC(=O)Cc3ccc(CC(C)C)cc3)n3nc(-c4ccco4)nc23)nn1C` was tested, and the Ki (Adenosine receptor A2b [3]) was 180 nM and the Ki (Adenosine receptor A3 [1]) was greater than 1000 nM.

Compound `CCNc1c2c(nc(N)n3nc(-c4ccco4)nc23)nn1C` has an IC50 (Adenosine receptor A3 [5]) of 103 nM.

`CN1CCN(c2c3c(nc(N)n4nc(-c5ccco5)nc34)nn2C)CC1` [listing 2 of 2 here] was tested, and the Ki (Adenosine receptor A3 [8]) was greater than 1000 nM.

In the case of `CCNc1c2c(nc(NC(=O)Nc3ccc(OC)cc3)n3nc(-c4ccco4)nc23)nn1C` [listing 2 of 2 here], the IC50 (Adenosine receptor A2a [7]) is reported as 61 nM and the IC50 (Adenosine receptor A3 [5]) is reported as 45 nM.

`Nc1nc2c(cnn2CCc2ccccc2)c2nc(-c3ccco3)nn12` [SCH-58261] showed a Ki (Adenosine receptor A2b [9]) greater than 1000 nM.
